pEC50, pIC50: −log10 of the molar value. Where two headings read alike, the source gives them in different places.
Legend:
[1] = Cytotoxicity in HeLa cells without OC43 virus; assay type: cell-based; conditions: human, HeLa cells (uninfected), in parallel
Procedure: (§1) The human beta-coronavirus OC43 was purchased from ATCC (Manassas, VA) and propagated using HCT-8 human colorectal epithelial cells (ATCC). HeLa human cervical epithelial cells (ATCC) were used as susceptible host cell lines and were cultured using EMEM media, supplemented with 10% fetal bovine serum (FBS), 1% (v/v) penicillin/streptomycin (P/S), 1% (v/v) HEPES and 1% (v/v) cellgro Glutagro™ supplement (all Corning, Manassas, VA) at 37° C. For the OC43 antiviral assay, 1.5×10^4 HeLa cells per well were plated in 100 μL complete media in white 96-well plates with clear bottoms at 37° C. for up to 24 h to facilitate attachment and allow cells to recover from seeding stresses. Next day, the cell culture medium was removed. Serially diluted compounds in 100 μL assay media (EMEM, 2% FBS, 1% P/S, 1% cellgro Glutagro™ supplement, 1% HEPES) were added to the cells and incubated for 4 h at 37° C. in a humidified 5% CO2 incubator. 100 μL of OC43 virus stock was diluted to a concentration known to produce optimal cytopathic effect, inducing 80-90% reduction in cell viability. 96-well plates were incubated for 6 days at 33° C.; each plate contains uninfected control wells as well as virus-infected wells that were not treated with compound. Cytotoxicity plates without the addition of OC43 virus were carried out in parallel. At the end of the incubation period, 100 μL cell culture supernatant was replaced with 100 μL cell-titer-glo reagent (Promega, Madison, WI) and incubated for at least 10 min at rt prior to measuring luminescence. Luminescence was measured on a Perkin Elmer (Waltham, MA) Envision plate reader. Antiviral % inhibition was calculated as follows: [(Compound treated cells infected sample)−(no compound infected control)]/[(Uninfected control)−(no compound infected control)]*100; Using GraphPad (San Diego, CA) prism software version 8.3.1, the antiviral dose-response plot was generated as a sigmoidal fit, log(inhibitor) vs response-variable slope (four parameters) model and the EC50 was calculated which is the predicted compound concentration corresponding to a 50% inhibition of the viral cytopathic effect.
(§2) Table 2 indicates related EC50 and CC50 values for the tested compounds ‘A’ indicates an EC50<100 nM, ‘B’ indicates an EC50 of ≥100 nM and <1000 nM, ‘C’ indicates an EC50≥1000 nM and <10000 nM and ‘D’ indicates an EC50≥10000 nM and <100000 nM. For CC50, the values are reported in micromolar (M), ‘A’ indicates a CC50≥10000 nM and ‘B’ indicates a CC50≥1 μM and <10 μM.

[2] = system: human beta-coronavirus OC43; assay: OC43 coronavirus antiviral assay in HeLa cells; assay type: cell-based; conditions: Betacoronavirus 1, 144 h, OC43, 6 days at 33° C., cell-titer-glo
Procedure: as §1, §2

[3] = target: T1, SARS-Cov-2 3CLpro (Severe acute respiratory syndrome coronavirus 2, UniProt P0DTD1); assay: SARS-Cov-2 3CLpro protease assay (SAMDI-MS); assay type: biochemical
T1 construct: 3CLpro was added using a Multidrop Combi

[4] = in vitro; conditions: human
[5] = system: SARS-CoV-2 B.1.1.7 lineage; assay: microbe, parasite or virus in culture; assay type: cell-based; conditions: Severe acute respiratory syndrome coronavirus 2, 96 h; read-out: A549-dual_ACE2_TMPRSS2 (EC50)
[6] = 30 mins preincubation, duplex peptide substrates, read-out: SARS-Cov-2 (3CLpro IC50)

| SMILES | CC50 at 6 days [1] [nM] | pEC50 [2] | pIC50 [3, 6] | CC50 [4] [nM] | pEC50 [5] | pIC50 ([3]; bound given in table footnote, read-out: SARS-Cov-2 activity (footnote of Table 1)) |
| --- | --- | --- | --- | --- | --- | --- |
| CC(C)(C)[C@H](NC(=O)C(F)(F)F)C(=O)N1C[C@H]2[C@@H]([C@H]1C(=O)NC(C#N)c1nc[nH]n1)[C@H]1C=C[C@@H]2C1 (stereo partly drawn) [Compound 4, (1R,2S,3S,6R,7S)—N-[cyano(1H-1,2,4-triazol-3-yl)methyl]-4-[(2S)-3,3-dimethyl-2-(2,2,2-trifluoroacetamido)butanoyl]-4-azatricyclo[5.2.1.0^{2,6}]dec-8-ene-3-carboxamide] | ≥ 10000 | 5.00 to 6.00 | 5.70 to 6.70 |  |  |  |
| CC(C)(C)[C@H](NC(=O)C(F)(F)F)C(=O)N1C[C@H]2[C@@H]([C@H]1C(=O)NC1(C#N)CCc3ccncc31)[C@H]1C=C[C@@H]2C1 (stereo partly drawn) [Compound 5, (1R,2S,3S,6R,7S)—N-{7-cyano-5H,6H-cyclopenta[c]pyridin-7-yl}-4-[(2S)-3,3-dimethyl-2-(2,2,2-trifluoroacetamido)butanoyl]-4-azatricyclo[5.2.1.0^{2,6}]dec-8-ene-3-carboxamide] | ≥ 10000 | 5.00 to 6.00 | 5.70 to 6.70 | > 1000 | ≤ 6.00 |  |
| Cn1cc(C(C#N)NC(=O)[C@@H]2[C@@H]3[C@H](CN2C(=O)[C@@H](NC(=O)C(F)(F)F)C(C)(C)C)[C@@H]2C=C[C@H]3C2)cn1 (stereo partly drawn) [Compound 6, (1R,2S,3S,6R,7S)—N-[cyano(1-methylpyrazol-4-yl)methyl]-4-[(2S)-3,3-dimethyl-2-(2,2,2-trifluoroacetamido)butanoyl]-4-azatricyclo[5.2.1.0^{2,6}]dec-8-ene-3-carboxamide] | ≥ 10000 | 5.00 to 6.00 | 6.70 to 7.70 | > 1000 | 6.00 to 7.00 |  |
| CC(C)(C)[C@H](NC(=O)C(F)(F)F)C(=O)N1C[C@@H]2[C@H]3C[C@@H]([C@@H]2[C@H]1C(=O)NC(C#N)c1cncc2ccccc12)[C@H](F)C3 (stereo partly drawn) [Compound 7, (1S,2R,3S,6R,7S,9R)—N-[cyano(isoquinolin-4-yl)methyl]-4-[(2S)-3,3-dimethyl-2-(2,2,2-trifluoroacetamido)butanoyl]-9-fluoro-4-azatricyclo[5.2.1.0^{2,6}]decane-3-carboxamide] | ≥ 10000 | > 7.00 | > 7.70 | > 1000 | > 7.00 |  |
| N#CC(NC(=O)[C@@H]1[C@@H]2[C@H](CN1C(=O)c1cc3c(F)cc(F)cc3[nH]1)[C@@H]1C=C[C@H]2C1)c1cncc2ccccc12 (stereo partly drawn) [Compound 8, (1R,2S,3S,6R,7S)—N-[cyano(isoquinolin-4-yl)methyl]-4-(4,6-difluoro-1H-indole-2-carbonyl)-4-azatricyclo[5.2.1.0^{2,6}]dec-8-ene-3-carboxamide] | 1000 to 10000 | 6.00 to 7.00 | 6.70 to 7.70 | > 1000 | 6.00 to 7.00 |  |
| CC(C)(C)[C@H](NC(=O)C(F)(F)F)C(=O)N1C[C@@H]2[C@H]3C[C@@H]([C@@H]2[C@H]1C(=O)NC(C#N)c1cncc2cccnc12)[C@H](F)C3 (stereo partly drawn) [Compound 9, (1S,2R,3S,6R,7S,9R)—N-[cyano(1,6-naphthyridin-8-yl)methyl]-4-[(2S)-3,3-dimethyl-2-(2,2,2-trifluoroacetamido)butanoyl]-9-fluoro-4-azatricyclo[5.2.1.0^{2,6}]decane-3-carboxamide] | ≥ 10000 | > 7.00 | > 7.70 | > 1000 | > 7.00 |  |
| CC(C)(C)[C@H](NC(=O)C(F)(F)F)C(=O)N1C[C@@H]2[C@H]3C[C@@H]([C@@H]2[C@H]1C(=O)NC(C#N)c1cncc(Cl)c1Cl)[C@H](F)C3 (stereo partly drawn) [Compound 10, (1S,2R,3S,6R,7S,9R)—N-[cyano(4,5-dichloropyridin-3-yl)methyl]-4-[(2S)-3,3-dimethyl-2-(2,2,2-trifluoroacetamido)butanoyl]-9-fluoro-4-azatricyclo[5.2.1.0^{2,6}]decane-3-carboxamide] | ≥ 10000 | 6.00 to 7.00 | > 7.70 | > 1000 | ≤ 6.00 |  |
| CC(C)(C)[C@H](NC(=O)C(F)(F)F)C(=O)N1C[C@H]2[C@@H]([C@H]1C(=O)NC(C#N)c1cncc3ccccc13)C2(C)C (stereo partly drawn) [Compound 11, (1R,2S,5S)—N-[cyano(isoquinolin-4-yl)methyl]-3-[(2S)-3,3-dimethyl-2-(2,2,2-trifluoroacetamido)butanoyl]-6,6-dimethyl-3-azabicyclo[3.1.0]hexane-2-carboxamide] | ≥ 10000 | > 7.00 |  | > 1000 | > 7.00 |  |
| N#CC(NC(=O)C1[C@@H]2[C@H](CN1C(=O)c1cnn(-c3ccccc3C(F)(F)F)c1)[C@H]1C[C@@H]2[C@H](F)C1)c1cncc2ccccc12 (stereo partly drawn) [Compound 12, (1S,2R,3S,6R,7S,9R)—N-[cyano(isoquinolin-4-yl)methyl]-9-fluoro-4-{1-[2-(trifluoromethyl)phenyl]pyrazole-4-carbonyl}-4-azatricyclo[5.2.1.0^{2,6}]decane-3-carboxamide] |  |  | 6.70 to 7.70 | > 1000 | ≤ 6.00 |  |
| CC(C)(C)[C@H](NC(=O)C(F)(F)F)C(=O)N1C[C@@H]2[C@@H]3CC([C@@H]2[C@H]1C(=O)NC(C#N)c1cnn(-c2ccccc2)c1)[C@H](F)C3 (stereo partly drawn) [Compound 13] |  |  | 5.70 to 6.70 |  |  |  |
| CC(C)(C)[C@H](NC(=O)C(F)(F)F)C(=O)N1C[C@@H]2[C@@H]3C[C@H]([C@@H]2[C@H]1C(=O)NC(C#N)c1cnn(-c2ccccc2)c1)[C@H](F)C3 (stereo partly drawn) [Compound 13] |  |  |  | > 1000 | ≤ 6.00 |  |
| CC(C)(C)[C@H](NC(=O)C(F)(F)F)C(=O)N1C[C@@H]2[C@@H]3CC([C@@H]2[C@H]1C(=O)NC(C#N)c1cncc(-c2ccccc2)c1)[C@H](F)C3 (stereo partly drawn) [Compound 14] |  |  | > 7.70 |  |  |  |
| CC(C)(C)[C@H](NC(=O)C(F)(F)F)C(=O)N1C[C@@H]2[C@@H]3C[C@H]([C@@H]2[C@H]1C(=O)NC(C#N)c1cncc(-c2ccccc2)c1)[C@H](F)C3 (stereo partly drawn) [Compound 14] | ≥ 10000 | 4.00 to 5.00 |  | > 1000 | 6.00 to 7.00 |  |
| CC(C)(C)[C@H](NC(=O)C(F)(F)F)C(=O)N1C[C@H]2[C@@H]([C@H]1C(=O)NC(C#N)c1cnc3ccccc3c1)[C@H]1C=C[C@@H]2C1 (stereo partly drawn) [Compound 15] | ≥ 10000 | 6.00 to 7.00 | > 7.70 | > 1000 | 6.00 to 7.00 |  |
| CC(C)(C)[C@H](NC(=O)C(F)(F)F)C(=O)N1C[C@H]2[C@@H]([C@H]1C(=O)NC(C#N)c1cccc3ccccc13)[C@H]1C=C[C@@H]2C1 (stereo partly drawn) [Compound 16] |  |  | 5.70 to 6.70 | > 1000 | ≤ 6.00 |  |
| CC(C)(C)[C@H](NC(=O)C(F)(F)F)C(=O)N1CC2(CC2)C[C@H]1C(=O)NC(C#N)c1cnn2ccccc12 (stereo partly drawn) [Compound 17, (6S)—N-(cyano(pyrazolo[1,5-a]pyridin-3-yl)methyl)-5-((S)-3,3-dimethyl-2-(2,2,2-trifluoroacetamido)butanoyl)-5-azaspiro[2.4]heptane-6-carboxamide] | ≥ 10000 | 6.00 to 7.00 | 6.70 to 7.70 | > 1000 | 6.00 to 7.00 |  |
| Cc1ncc2ccccc2c1C(C#N)NC(=O)[C@@H]1[C@@H]2[C@H](CN1C(=O)[C@@H](NC(=O)C(F)(F)F)C(C)(C)C)[C@@H]1C=C[C@H]2C1 (stereo partly drawn) [Compound 21] |  |  | 4.70 to 5.70 | > 1000 | ≤ 6.00 |  |
| CC(C)(C)[C@H](NC(=O)C(F)(F)F)C(=O)N1C[C@@H]2[C@H]3C[C@@H]([C@@H]2[C@H]1C(=O)NC(C#N)c1cncn1-c1ccccc1)[C@H](F)C3 (stereo partly drawn) [Compound 23] |  |  | 6.70 to 7.70 | > 1000 | ≤ 6.00 | < 6.30 |
| C#CC(NC(=O)[C@@H]1[C@@H]2[C@H](CN1C(=O)[C@@H](NC(=O)C(F)(F)F)C(C)(C)C)[C@H]1C[C@@H]2[C@H](F)C1)c1cncc2ccccc12 (stereo partly drawn) [Compound 32, (1S,3aR,4S,6R,7S,7aR)-2-((S)-3,3-dimethyl-2-(2,2,2-trifluoroacetamido)butanoyl)-6-fluoro-N-(1-(isoquinolin-4-yl)prop-2-yn-1-yl)octahydro-1H-4,7-methanoisoindole-1-carboxamide] |  |  | 6.70 to 7.70 |  |  |  |
